Assay results taken from patent US12528814B2, “Bifunctional degraders of interleukin-1 receptor-associated kinases and therapeutic use thereof” (NURIX THERAPEUTICS, INC., priority 2020, dated 2026).

Tests used:
IRAK4 [1] = target: T1, IRAK4 (Homo sapiens (Human), UniProt Q9NWZ3); assay: IRAK4 Biochemical HTRF Kinase Assay; settings: Table 5; multiple runs; read-out: IRAK4 HTRF biochemical: IC50
Procedure, shortened: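 HTRF KinEASE STK S1 format measuring IRAK4 phosphorylation of biotinylated peptide; reaction solution of 5 μM STK-S1, 10 mM ATP, 10 mM MgCl2 added (stock, to 10 μl final), 90 min at ambient temperature, detection 60 min. IC50 from sixteen-point duplicate curves by non-linear regression.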
Target sequence in this assay (Q9NWZ3 whole entry, species assumed): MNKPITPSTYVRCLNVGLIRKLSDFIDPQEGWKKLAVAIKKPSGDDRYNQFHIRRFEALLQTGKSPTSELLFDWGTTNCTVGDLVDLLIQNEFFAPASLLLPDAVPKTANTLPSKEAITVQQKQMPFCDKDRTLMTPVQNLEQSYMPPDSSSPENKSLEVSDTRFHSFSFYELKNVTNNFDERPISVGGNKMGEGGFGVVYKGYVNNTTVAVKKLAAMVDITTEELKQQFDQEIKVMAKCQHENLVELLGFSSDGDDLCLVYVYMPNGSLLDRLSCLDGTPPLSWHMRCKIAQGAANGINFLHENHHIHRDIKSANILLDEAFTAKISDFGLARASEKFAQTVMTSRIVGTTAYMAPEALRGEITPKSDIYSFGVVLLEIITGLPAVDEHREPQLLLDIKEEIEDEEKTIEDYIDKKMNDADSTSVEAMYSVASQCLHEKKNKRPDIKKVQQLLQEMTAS

IRAK4 [2] = target: T1, IRAK4; assay: IRAK4 Degradation HiBiT Assay; settings: multiple runs, HiBiT-tagged Jurkat cells, 4 hrs; for Dmax: Jurkat, read-out: Cellular IRAK4 HiBiT: Dmax, Table 5; for DC50: read-out: Cellular IRAK4 HiBiT: DC50, Table 5
Target sequence in this assay (Q9NWZ3 whole entry): as the sequence (Q9NWZ3 whole entry, species assumed) above

Compound | IC50 (IRAK4 [1]) [nM] | Dmax (IRAK4 [2]) [%] | DC50 (IRAK4 [2]) [nM]
CNc1cc(-c2ccc3cc(C#N)cnn23)ncc1-c1nnc([C@H]2C[C@H](NC(=O)C[C@H](NC(=O)[C@@H]3C[C@@H](O)CN3C(=O)[C@@H](NC(=O)C3(F)CC3)C(C)(C)C)c3ccc(-c4scnc4C)cc3)C2)s1 [Example 183, (2S,4R)—N—((S)-3-(((1r,3S)-3-(5-(6-(3-cyanopyrrolo[1,2-b]pyridazin-7-yl)-4-(methylamino)pyridin-3-yl)-1,3,4-thiadiazol-2-yl)cyclobutyl)amino)-1-(4-(4-methylthiazol-5-yl)phenyl)-3-oxopropyl)-1-((S)-2-(1-fluorocyclopropane-1-carboxamido)-3,3-dimethylbutanoyl)-4-hydroxypyrrolidine-2-carboxamide] | 2.3 | 111 | 222
CNc1cc(-c2ccc3cc(C#N)cnn23)ncc1-c1nnc(N2CCC(C3CCN(C(=O)c4ccc5c(c4)C(=O)N(C4CCC(=O)NC4=O)C5=O)CC3)CC2)s1 (stereo not drawn) [Example 184, 7-(5-(5-(1′-(2-(2,6-dioxopiperidin-3-yl)-1,3-dioxoisoindoline-5-carbonyl)-[4,4′-bipiperidin]-1-yl)-1,3,4-thiadiazol-2-yl)-4-(methylamino)pyridin-2-yl)pyrrolo[1,2-b]pyridazine-3-carbonitrile] | 0.9 | 96 | 71.4
CNc1cc(-c2ccc3cc(C#N)cnn23)ncc1-c1nnc(N2CCC(C3CCN(C(=O)CN4CCN(c5ccc6c(c5)C(=O)N(C5CCC(=O)NC5=O)C6=O)CC4)CC3)CC2)s1 (stereo not drawn) [Example 185, 7-(5-(5-(1′-(2-(4-(2-(2,6-dioxopiperidin-3-yl)-1,3-dioxoisoindolin-5-yl)piperazin-1-yl)acetyl)-[4,4′-bipiperidin]-1-yl)-1,3,4-thiadiazol-2-yl)-4-(methylamino)pyridin-2-yl)pyrrolo[1,2-b]pyridazine-3-carbonitrile] | 1.5 | 89 | 126
CNc1cc(-c2ccc3cc(C#N)cnn23)ncc1-c1nnc(N2CCC(N3CCN(C(=O)c4ccc5c(c4)C(=O)N(C4CCC(=O)NC4=O)C5=O)CC3)CC2)s1 (stereo not drawn) [Example 186, 7-(5-(5-(4-(4-(2-(2,6-dioxopiperidin-3-yl)-1,3-dioxoisoindoline-5-carbonyl)piperazin-1-yl)piperidin-1-yl)-1,3,4-thiadiazol-2-yl)-4-(methylamino)pyridin-2-yl)pyrrolo[1,2-b]pyridazine-3-carbonitrile] | 0.3 | 96 | 17.1
CNc1cc(-c2ccc3cc(C#N)cnn23)ncc1-c1nnc(N2CCN(CCC3CCN(c4ccc5c(c4)C(=O)N(C4CCC(=O)NC4=O)C5=O)CC3)CC2)s1 (stereo not drawn) [Example 187, 7-(5-(5-(4-(2-(1-(2-(2,6-dioxopiperidin-3-yl)-1,3-dioxoisoindolin-5-yl)piperidin-4-yl)ethyl)piperazin-1-yl)-1,3,4-thiadiazol-2-yl)-4-(methylamino)pyridin-2-yl)pyrrolo[1,2-b]pyridazine-3-carbonitrile] | 0.9 | 95 | 88.3
CNc1cc(-c2ccc3cc(C#N)cnn23)ncc1-c1nnc([C@H]2CC[C@H](N(C)C(=O)CCN3CCN(c4ccc5c(c4)C(=O)N(C4CCC(=O)NC4=O)C5=O)CC3)CC2)s1 (stereo partly drawn) [Example 188, N-((1r,4r)-4-(5-(6-(3-cyanopyrrolo[1,2-b]pyridazin-7-yl)-4-(methylamino)pyridin-3-yl)-1,3,4-thiadiazol-2-yl)cyclohexyl)-3-(4-(2-(2,6-dioxopiperidin-3-yl)-1,3-dioxoisoindolin-5-yl)piperazin-1-yl)-N-methylpropanamide] | 0.5 | 108 | 16
